Data as given in patent US20050170502A1, “Methods for maintaining hepatocytes in culture and for differentiating embryonic stem cells along a hepatocyte lineage” (REGENTS OF THE UNIVERSITY OF CALIFORNIA, priority 2003, published 2005).

tested on: mouse ES cells (ES-D3); assay: Hepatocyte-specific gene expression in differentiated mouse ES cells, real-time quantitative RT-PCR; conditions: also in murine ES cells
Experimental: Mouse ES cell line ES-D3 and mouse STO fibroblasts were obtained from the American Type Culture Collection, Manassas, Va. ES cells were expanded on STO fibroblast feeder layers in Dulbecco's modified Eagle's medium (DMEM) (unless specified, cell culture supplies were from Invitrogen, Carlsbad, Calif.) containing 15% fetal bovine serum (FBS), 1 mM L-glutamine, 60 μM non-essential amino acid solution, 0.1 mM 2-mercaptoethanol, 10 mM HEPES (Sigma-Aldrich, Saint Louis, Mo.), 1400 U/ml leukemia inhibitory factor (LIF) (Chemicon International, Temecula, Calif.), and penicillin/streptomycin at standard concentrations. To prepare feeder layers, STO fibroblasts were cultured until confluent and treated with 10 μg/ml mitomycin C (Sigma-Aldrich) for 4 hours. Mitomycin C-treated STO fibroblasts were then re-seeded at a density of 7-8×10^4/cm^2 one day before plating ES cells. […] These culture conditions stimulated the formation of non-attached embryoid bodies (EBs): Five days later, EBs were placed on different substratum pre-coated 6-well tissue culture plates in various media formulations, and the expression of hepatocyte-specific genes was examined at day 8-75 (FIG. 1A). Substrata used for pre-coating included gelatin, collagen type I (Sigma-Aldrich), collagen type IV, laminin, fibronectin and poly-D-lysine (Becton Dickinson Labware, Bedford, Mass.). The following culture media were tested for ES cells differentiation: DMEM, Williams' medium E (WME), and Iscove's modified Dulbecco's medium (IMDM), all supplemented with 10 to 20% FBS, 0.3 mM monothioglycerol (Sigma-Aldrich), penicillin/streptomycin at standard concentrations, and a range of growth and differentiation factors including hepatocyte growth factor (HGF, 20 ng/ml), nerve growth factor (NGF, 100 ng/ml), epidermal growth factor (EGF, 100 ng/ml), acidic fibroblast growth factor (aFGF, 100 ng/ml), basic fibroblast growth factor (bFGF, 100 ng/ml) (Li, X. et al., J. Cell. Biol. 153:811-822 (2001)), all-trans-retinoic acid (RA, 1 μM) (Makita, T. et al., Genes. Dev. 15:889-901 (2001)), oncostatin M (OnM, 10 ng/ml) (Kamiya, A. et al., EMBO. J. 18:2127-2136 (1999)), bovine insulin (0.126 U/ml), dexamethasone (100 nM) (all from Sigma-Aldrich), and human insulin (0.126 U/ml) (Eli Lilly and Company, Indianapolis, Ind.). Growth and differentiation factors were added to the culture media at final concentrations as indicated above. In addition, EBs were also cultured in medium that was previously used to induce multipotent adult progenitor cells (MAPC) from mouse bone marrow to differentiate into functional hepatocyte-like cells (Schwartz, R. E. et al., J. Clin. Invest. 109:1291-1302 (2002)).
Total RNA was extracted with RNeasy Mini Kit (Qiagen, Valencia, Calif.). Real time quantitative RT-PCR was employed for the determination of gene expression as described in detail previously by our group (Wege, H. et al., Gastroenterology 124:432-444 (2003)). In brief, one μg RNA was used to generate cDNA after treatment with deoxyribonuclease I (Invitrogen). First-strand synthesis was performed employing the Thermoscript RT-PCR System (Invitrogen) with random hexamers. Relative mouse or human gene expression analysis (ΔΔCT) was performed by real-time quantitative PCR with the ABI Prism 7700 Sequence Detection System and SYBR PCR Green Master Mix or TaqMan PCR Master Mix (Applied Biosystems, Foster City, Calif.). Primer pairs and hybridization probes for mouse or human albumin, prealbumin (transthyretin), alphal-antitrypsin (α1-AT), glucose-6-phosphatase (G6P), cytokeratin 19 (CK19), γ-glutamyl transferase (GGT), and β-actin, were synthesized, and primer concentrations were optimized for specific amplification at 60° C. […] Expression levels were normalized using mouse β-actin or human glyceraldehyde phosphate dehydrogenase (GAPDH) as an endogenous control. Normalized expression of hepatocyte-specific genes was compared to levels detected in primary adult mouse or human hepatocytes.

Molecule	production of hepatocyte-specific proteins compared with bovine insulin
human insulin: human insulin (Eli Lilly and Company), growth factor added to the culture medium	higher production

same assay, conditions: mouse ES cells, IMDM, collagen type I, day 33, FIG. 2A

Molecule	albumin gene expression (effect of individual growth and differentiation factors)
CC1=C(/C=C/C(C)=C/C=C/C(C)=C/C(=O)O)C(C)(C)CCC1 [RA, all-trans-retinoic acid]	only minor positive or even negative effects
C[C@@H]1C[C@H]2[C@@H]3CCC4=CC(=O)C=C[C@]4(C)[C@@]3(F)[C@@H](O)C[C@]2(C)[C@@]1(O)C(=O)CO [dexamethasone, 9-fluoro-11β,17,21-trihydroxy-16α-methylpregna-1,4-diene-3,20-dione]	most effective
HGF: hepatocyte growth factor	only minor positive or even negative effects
NGF: nerve growth factor	only minor positive or even negative effects
aFGF: acidic fibroblast growth factor	only minor positive or even negative effects
bFGF: basic fibroblast growth factor	only minor positive or even negative effects
hEGF: human epidermal growth factor (NSDSECPLSHDGYCLHDGVCMYIEALDKYACNCVVGYIGERCQYRDLKWWELR; UniProt P01133 971-1023, looked up)	only minor positive or even negative effects
human insulin: human insulin (Eli Lilly and Company), growth factor added to the culture medium	most effective
mEGF: mouse epidermal growth factor (NSYPGCPSSYDGYCLNGGVCMHIESLDSYTCNCVIGYSGDRCQTRDLRWWELR; not fully specified; Epidermal growth factor; UniProt P01132 977-1029, looked up)	only minor positive or even negative effects
